The source of these data is the supplement of paper PMC10307832.

Common to all, as to assay: relative viability (nuclei count vs DMSO), 5 days (fraction); higher = more cells survive
Compound in the assay “Shikonin + Bortezomib”: CC(C)=CC[C@@H](O)C1=CC(=O)c2c(O)ccc(O)c2C1=O [Shikonin] + CC(C)C[C@H](NC(=O)[C@H](Cc1ccccc1)NC(=O)c1cnccn1)B(O)O [Bortezomib] (partner 0.002 µM)
The procedure, abridged: (§1)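 A single step with final 0.05% Triton X-100, 1% formaldehyde and 1 ug/ml Hoechst fixed the cells and stained nuclei 5 days after treatment. Lung cancer cell lines in 1536-well plates had been treated by pin tool the day after seeding with one drug alone or a fixed anchor-drug dose plus five library-drug doses (not always all listed) in √10 steps, and nuclei were counted on 4× images. Relative viability is the ratio of nuclei in treated wells to nuclei in vehicle wells, taken as the median of duplicate plates.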

Compound in the assay “Shikonin + Pictilisib”: CC(C)=CC[C@@H](O)C1=CC(=O)c2c(O)ccc(O)c2C1=O [Shikonin] + CS(=O)(=O)N1CCN(Cc2cc3nc(-c4cccc5[nH]ncc45)nc(N4CCOCC4)c3s2)CC1 [Pictilisib] (partner 1 µM)
The procedure, abridged: as §1

Compound in the assay “Shikonin + Olaparib”: CC(C)=CC[C@@H](O)C1=CC(=O)c2c(O)ccc(O)c2C1=O [Shikonin] + O=C(c1cc(Cc2n[nH]c(=O)c3ccccc23)ccc1F)N1CCN(C(=O)C2CC2)CC1 [Olaparib] (partner 8 µM)
The procedure, abridged: as §1

Compound in assay [1]: CC(C)N(CCCNC(=O)Nc1ccc(C(C)(C)C)cc1)C[C@H]1O[C@@H](n2ccc3c(N)ncnc32)[C@H](O)[C@@H]1O + Cc1nc(Nc2ncc(C(=O)Nc3c(C)cccc3Cl)s2)cc(N2CCN(CCO)CC2)n1 [Dasatinib] (partner 0.075 µM)
Put shortly:
as §1

For 201T, the relative viability in the assay with Shikonin + Bortezomib (first compound 0.01 µM) worked out at 1.12; with Shikonin + Bortezomib (first compound 0.1 µM) it was 1.23; in the assay with Shikonin + Bortezomib (first compound 0.3162 µM) it was 1.14; in the assay with Shikonin + Bortezomib (first compound 1 µM), 1.15; with Shikonin + Pictilisib (first compound 0.01 µM), 0.621; in the assay with Shikonin + Pictilisib (first compound 0.1 µM), 0.754. The relative viability in the assay with Shikonin + Pictilisib (first compound 0.3162 µM) is 0.669; in the assay with Shikonin + Pictilisib (first compound 1 µM), 0.796; with Shikonin + Olaparib (first compound 0.01 µM), 0.843; with Shikonin + Olaparib (first compound 0.1 µM), 0.893; with Shikonin + Olaparib (first compound 0.3162 µM), 0.869; with Shikonin + Olaparib (first compound 1 µM), 0.951. Moreover, the relative viability turned out to be 0.562 in assay [1] (first compound 0.08 µM); 0.548 in assay [1] (first compound 0.253 µM); 0.505 in assay [1] (first compound 0.8 µM); 0.565 in assay [1] (first compound 2.53 µM); 0.593 in assay [1] (first compound 8 µM).
Regarding A549, the relative viability with Shikonin + Pictilisib (first compound 0.01 µM) was 0.746; with Shikonin + Pictilisib (first compound 0.1 µM), 0.569; with Shikonin + Pictilisib (first compound 0.3162 µM) it was 0.644; with Shikonin + Pictilisib (first compound 1 µM), 0.488; with Shikonin + Olaparib (first compound 0.01 µM) it was 0.351; with Shikonin + Olaparib (first compound 0.1 µM), 0.454. The relative viability amounted to 0.305 with Shikonin + Olaparib (first compound 0.3162 µM) and 0.302 with Shikonin + Olaparib (first compound 1 µM).
Consider A-427, for which the relative viability with Shikonin + Bortezomib (first compound 0.01 µM) came out at 1.07; with Shikonin + Bortezomib (first compound 0.1 µM) it was 1.17; with Shikonin + Bortezomib (first compound 0.3162 µM), 0.979; with Shikonin + Bortezomib (first compound 1 µM) it was 1.05; in the assay with Shikonin + Pictilisib (first compound 0.01 µM), 0.691; with Shikonin + Pictilisib (first compound 0.1 µM), 0.915. Further, the relative viability in the assay with Shikonin + Pictilisib (first compound 0.3162 µM) came to 0.643; with Shikonin + Pictilisib (first compound 1 µM), 0.765; with Shikonin + Olaparib (first compound 0.01 µM) it was 0.802; in the assay with Shikonin + Olaparib (first compound 0.1 µM), 0.872; with Shikonin + Olaparib (first compound 0.3162 µM) it was 0.708; with Shikonin + Olaparib (first compound 1 µM), 0.795. Further, the relative viability came out at 0.671 in assay [1] (first compound 0.08 µM); 0.644 in assay [1] (first compound 0.253 µM); 0.641 in assay [1] (first compound 0.8 µM); 0.61 in assay [1] (first compound 2.53 µM); 0.594 in assay [1] (first compound 8 µM).
Turning to ABC-1, the relative viability with Shikonin + Bortezomib (first compound 0.01 µM) was determined as 0.279; with Shikonin + Bortezomib (first compound 0.1 µM) it was 0.31; with Shikonin + Bortezomib (first compound 0.3162 µM), 0.274; with Shikonin + Bortezomib (first compound 1 µM) it was 0.254; in the assay with Shikonin + Pictilisib (first compound 0.01 µM) it was 0.718; with Shikonin + Pictilisib (first compound 0.1 µM), 0.776. Also, the relative viability with Shikonin + Pictilisib (first compound 0.3162 µM) stood at 0.538; with Shikonin + Pictilisib (first compound 1 µM), 0.407; with Shikonin + Olaparib (first compound 0.01 µM), 0.78; with Shikonin + Olaparib (first compound 0.1 µM) it was 0.894; with Shikonin + Olaparib (first compound 0.3162 µM) it was 0.948; in the assay with Shikonin + Olaparib (first compound 1 µM), 0.637. For the same cell line, the relative viability in assay [1] (first compound 0.08 µM) worked out at 0.62; in assay [1] (first compound 0.253 µM), 0.599; in assay [1] (first compound 2.53 µM) it was 0.712; in assay [1] (first compound 8 µM), 0.524.
Consider BEN, for which the relative viability with Shikonin + Bortezomib (first compound 0.01 µM) turned out to be 0.826; with Shikonin + Bortezomib (first compound 0.1 µM), 1.04; with Shikonin + Bortezomib (first compound 0.3162 µM), 0.748; with Shikonin + Bortezomib (first compound 1 µM), 0.849; in the assay with Shikonin + Pictilisib (first compound 0.01 µM), 0.642; with Shikonin + Pictilisib (first compound 0.1 µM) it was 0.596. Also, the relative viability was determined as 0.682 with Shikonin + Pictilisib (first compound 0.3162 µM); 0.612 with Shikonin + Pictilisib (first compound 1 µM); 1.08 with Shikonin + Olaparib (first compound 0.01 µM); 1.03 in the assay with Shikonin + Olaparib (first compound 0.1 µM); 1.02 in the assay with Shikonin + Olaparib (first compound 0.3162 µM); 1.01 in the assay with Shikonin + Olaparib (first compound 1 µM). The relative viability in assay [1] (first compound 0.08 µM) worked out at 0.29; in assay [1] (first compound 0.253 µM) it was 0.347; in assay [1] (first compound 0.8 µM) it was 0.312; in assay [1] (first compound 2.53 µM) it was 0.314; in assay [1] (first compound 8 µM), 0.312.
In the case of CAL-12T, the relative viability in the assay with Shikonin + Bortezomib (first compound 0.01 µM) came to 0.898; with Shikonin + Bortezomib (first compound 0.1 µM) it was 1.05; with Shikonin + Bortezomib (first compound 0.3162 µM), 1.01; with Shikonin + Bortezomib (first compound 1 µM) it was 1.17; in the assay with Shikonin + Pictilisib (first compound 0.01 µM), 0.368; in the assay with Shikonin + Pictilisib (first compound 0.1 µM), 0.409. The relative viability with Shikonin + Pictilisib (first compound 0.3162 µM) was 0.35; in the assay with Shikonin + Pictilisib (first compound 1 µM), 0.414; with Shikonin + Olaparib (first compound 0.01 µM), 0.767; with Shikonin + Olaparib (first compound 0.1 µM), 0.849; in the assay with Shikonin + Olaparib (first compound 0.3162 µM), 0.789; with Shikonin + Olaparib (first compound 1 µM), 0.639. For the same cell line, the relative viability in assay [1] (first compound 0.08 µM) is 0.405; in assay [1] (first compound 0.253 µM) it was 0.398; in assay [1] (first compound 0.8 µM), 0.386; in assay [1] (first compound 2.53 µM), 0.453; in assay [1] (first compound 8 µM) it was 0.402.
With COR-L23, the relative viability in the assay with Shikonin + Bortezomib (first compound 0.01 µM) came out at 1.1; in the assay with Shikonin + Bortezomib (first compound 0.1 µM) it was 1.11; with Shikonin + Bortezomib (first compound 0.3162 µM), 1.18; with Shikonin + Bortezomib (first compound 1 µM), 0.8; with Shikonin + Pictilisib (first compound 0.01 µM), 1.09; with Shikonin + Pictilisib (first compound 0.1 µM), 0.831. Moreover, the relative viability in the assay with Shikonin + Pictilisib (first compound 0.3162 µM) was 0.889; in the assay with Shikonin + Pictilisib (first compound 1 µM) it was 0.741; in the assay with Shikonin + Olaparib (first compound 0.01 µM), 0.401; with Shikonin + Olaparib (first compound 0.1 µM) it was 0.306; with Shikonin + Olaparib (first compound 0.3162 µM), 0.307; in the assay with Shikonin + Olaparib (first compound 1 µM), 0.24. For the same cell line, the relative viability in assay [1] (first compound 0.08 µM) turned out to be 0.499; in assay [1] (first compound 0.253 µM), 0.5; in assay [1] (first compound 0.8 µM), 0.457; in assay [1] (first compound 2.53 µM), 0.474; in assay [1] (first compound 8 µM), 0.442.
Consider COR-L 105, for which the relative viability was 0.88 with Shikonin + Bortezomib (first compound 0.01 µM); 0.887 with Shikonin + Bortezomib (first compound 0.1 µM); 0.751 in the assay with Shikonin + Bortezomib (first compound 0.3162 µM); 0.603 in the assay with Shikonin + Bortezomib (first compound 1 µM); 0.428 with Shikonin + Pictilisib (first compound 0.01 µM); 0.358 with Shikonin + Pictilisib (first compound 0.1 µM). For the same cell line, the relative viability came to 0.438 in the assay with Shikonin + Pictilisib (first compound 0.3162 µM); 0.336 in the assay with Shikonin + Pictilisib (first compound 1 µM); 0.672 with Shikonin + Olaparib (first compound 0.01 µM); 0.796 in the assay with Shikonin + Olaparib (first compound 0.1 µM); 0.558 in the assay with Shikonin + Olaparib (first compound 0.3162 µM); 0.606 with Shikonin + Olaparib (first compound 1 µM). The relative viability in assay [1] (first compound 0.08 µM) worked out at 0.298; in assay [1] (first compound 0.253 µM), 0.347; in assay [1] (first compound 0.8 µM), 0.308; in assay [1] (first compound 2.53 µM), 0.31; in assay [1] (first compound 8 µM), 0.391.
